Assay results published in US6806230B1, “Pyrimidine derivatives and herbicides containing them” (Kumiai Chemical Industry Co., Ltd., priority 1999, dated 2004).

Columns and labels:
Assay type in all cases: in vivo
green foxtail (Se) = assay: Test Example 2: herbicidal effects by upland soil treatment; conditions: dose 100 g active ingredient per 10 ares, examined on the 21st day after treatment, standards of Table 44;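 note: 0-5 growth inhibition grade; 5 = over 90%; 4 = 70-90%; 3 = 50-70%; 2 = 30-50%; 1 = 10-30%; 0 = under 10%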
Summary of the method: (§1)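 Pre-emergence test: barnyard grass and green foxtail sown in upland soil, then soil surface sprayed with wettable-powder formulation at 100 g active ingredient per 10 ares (100 l per 10 ares). Grown in greenhouse; herbicidal effect scored on a rating scale 21 days after treatment.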

barnyard grass (Ec) [1] = assay: Test Example 3: herbicidal effects by foliage treatment in upland field; design: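 0-5 growth inhibition grade; 5 = over 90%; 4 = 70-90%; 3 = 50-70%; 2 = 30-50%; 1 = 10-30%; 0 = under 10%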; conditions: dose 100 g active ingredient per 10 ares, examined on the 14th day after treatment
Summary of the method: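 Barnyard grass and green foxtail were grown in upland soil for 2 weeks in a greenhouse. A water-diluted wettable powder was sprayed over the foliage at 100 l per 10 ares, giving 100 g active ingredient per 10 ares. Herbicidal effect was scored on day 14 after treatment.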

barnyard grass (Ec) [2] = assay: Test Example 2: herbicidal effects by upland soil treatment; design: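 0-5 growth inhibition grade; 5 = over 90%; 4 = 70-90%; 3 = 50-70%; 2 = 30-50%; 1 = 10-30%; 0 = under 10%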; conditions: dose 100 g active ingredient per 10 ares, examined on the 21st day after treatment, standards of Table 44
Summary of the method: as §1

monochoria (Mo) [3] = assay: Test Example 4: selectivity for a crop plant by flooded paddy field treatment; design: scale not given here; conditions: dose 25 g active ingredient per 10 ares, examined on the 21st day after treatment
Summary of the method: (§2)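 Scores reflect visual herbicidal effect, graded on a standard scale 21 days after water-surface treatment. The product, a wettable powder diluted with water, went on dropwise at 25 g a.i. per 10 ares one day after flooding to 3 cm. Weeds grew from sown seed and rice was transplanted at second-leaf stage.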

rice (Or) = assay: as above; design: scale not given here; conditions: rice transplanted at second leaf stage, dose 25 g active ingredient per 10 ares, examined on the 21st day after treatment
Summary of the method: as §2

barnyard grass (Eo) [4] = assay: as above; design: scale not given here; conditions: dose 25 g active ingredient per 10 ares, examined on the 21st day after treatment
Summary of the method: as §2

monochoria (Mo) [5] = assay: Test Example 1: herbicidal effects by flooded paddy field treatment; conditions: dose 100 gai/10a, examined on 21st day after treatment, index 0-5 per Table 44;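 note: 0-5 growth inhibition grade; 5 = over 90%; 4 = 70-90%; 3 = 50-70%; 2 = 30-50%; 1 = 10-30%; 0 = under 10%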
Summary of the method: (§3)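 Herbicidal effect is a graded score assigned 21 days after treatment. Application was one day after sowing into flooded (3 cm) puddled paddy soil, with diluted wettable powder dropped onto the water at 100 g active ingredient per 10 ares. Plants were kept in a greenhouse.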

wheat (Tr) = assay: Test Example 5: selectivity for a crop plant by soil treatment in upland field; design: scale not given here; conditions: dose 25 gai/10a, 21st day after treatment, index per Table 44
Experimental: (§4) In a 80 cm^2 plastic pot, upland soil was filled, and seeds of barnyard grass (Ec), green foxtail (Se), soybean (G1), wheat (Tr) and corn (Ze) were sown and covered with soil. A wettable powder prepared in accordance with Formulation Example 1 was diluted with water and uniformly applied to the soil surface by a small size spray at a rate of 100 l per 10 ares so that the dose of the active ingredient would be 25 g per 10 ares. Thereafter, cultivation was carried out in a green house, and on the 21st day after the treatment, the herbicidal effects were examined in accordance with the standards of Table 44.

barnyard grass (Ec) [6] = assay: as above; design: scale not given here; conditions: dose 25 gai/10a, 21st day after treatment, index per Table 44
Experimental: as §4

corn (Ze) = assay: as above; design: scale not given here; conditions: dose 25 gai/10a, 21st day after treatment, index per Table 44
Experimental: as §4

soybean (G1) = assay: as above; design: scale not given here; conditions: dose 25 gai/10a, 21st day after treatment, index per Table 44
Experimental: as §4

barnyard grass (Eo) [7] = assay: Test Example 1: herbicidal effects by flooded paddy field treatment; conditions: dose 100 gai/10a, examined on 21st day after treatment, index 0-5 per Table 44;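 note: 0-5 growth inhibition grade; 5 = over 90%; 4 = 70-90%; 3 = 50-70%; 2 = 30-50%; 1 = 10-30%; 0 = under 10%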
Summary of the method: as §3

Row | SMILES | herbicidal effects, Se (green foxtail) (green foxtail (Se)) | Ec (herbicidal effects, index) (barnyard grass (Ec) [1]) | herbicidal effects, Ec (barnyard grass) (barnyard grass (Ec) [2]) | Mo (herbicidal effects, index) (monochoria (Mo) [3]) | Or (effect on crop plant rice, index) (rice (Or)) | Eo (herbicidal effects, index) (barnyard grass (Eo) [4]) | Herbicidal effect index, Mo (monochoria (Mo) [5]) | Tr (herbicidal effect index on crop) (wheat (Tr)) | Ec (herbicidal effect index) (barnyard grass (Ec) [6]) | Ze (herbicidal effect index on crop) (corn (Ze)) | Gl (herbicidal effect index on crop) (soybean (G1)) | Herbicidal effect index, Eo (barnyard grass (Eo) [7])
1 | CC(C)C(c1cncnc1C(F)(F)F)N(C)C(=O)Cc1ccc(Cl)cc1F (racemic) [Compound 1-46] | 5 | 4 | 5 | 5 | 0 | 5 | 5 | 3 | 5 | 0 | 1 | 5
2 | CC(C)C(c1cncnc1C(F)(F)F)N(C)C(=O)Cc1ccc(I)cc1 (racemic) [Compound 1-42] | 5 | 4 | 5 | 5 | 0 | 5 | 5 | 0 | 5 | 0 | 0 | 5
3 | Cc1ccccc1CC(=O)N(C)C(c1cncnc1C(F)(F)F)C(C)C (racemic) [Compound 1-50] | 5 | 4 | 5 | 5 | 1 | 5 | 5 | 3 | 4 | 0 | 3 | 5
4 | CC(C)C(c1cncnc1C(F)(F)F)N(C(=O)Cc1ccc(F)cc1)C1CC1 (racemic) [Compound 1-83] | 5 | 5 | 5 | 5 | 1 | 5 | 5 | 2 | 5 | 1 | 1 | 5
5 | Cc1ccc(CC(=O)N(C)C(c2cncnc2C)C(C)C)cc1 (racemic) [Compound 1-89] | 5 | 5 | 5 | 5 | 0 | 5 | 5 | 2 | 4 | 2 | 0 | 5
